Counter-ions that a name gives are not always drawn.

For 30 compounds, IC50 results are on record in patent publication US10745384B2, “Indazole derivatives as αv integrin antagonists” (BRISTOL-MYERS SQUIBB COMPANY, priority 2016, dated 2020).

The assay deals with T1, human αVβ6 (Homo sapiens, UniProt P06756+P18564).
T1 construct: purchased R & D systems 3817-AV
T1 sequence (P06756 31-992 limits assumed): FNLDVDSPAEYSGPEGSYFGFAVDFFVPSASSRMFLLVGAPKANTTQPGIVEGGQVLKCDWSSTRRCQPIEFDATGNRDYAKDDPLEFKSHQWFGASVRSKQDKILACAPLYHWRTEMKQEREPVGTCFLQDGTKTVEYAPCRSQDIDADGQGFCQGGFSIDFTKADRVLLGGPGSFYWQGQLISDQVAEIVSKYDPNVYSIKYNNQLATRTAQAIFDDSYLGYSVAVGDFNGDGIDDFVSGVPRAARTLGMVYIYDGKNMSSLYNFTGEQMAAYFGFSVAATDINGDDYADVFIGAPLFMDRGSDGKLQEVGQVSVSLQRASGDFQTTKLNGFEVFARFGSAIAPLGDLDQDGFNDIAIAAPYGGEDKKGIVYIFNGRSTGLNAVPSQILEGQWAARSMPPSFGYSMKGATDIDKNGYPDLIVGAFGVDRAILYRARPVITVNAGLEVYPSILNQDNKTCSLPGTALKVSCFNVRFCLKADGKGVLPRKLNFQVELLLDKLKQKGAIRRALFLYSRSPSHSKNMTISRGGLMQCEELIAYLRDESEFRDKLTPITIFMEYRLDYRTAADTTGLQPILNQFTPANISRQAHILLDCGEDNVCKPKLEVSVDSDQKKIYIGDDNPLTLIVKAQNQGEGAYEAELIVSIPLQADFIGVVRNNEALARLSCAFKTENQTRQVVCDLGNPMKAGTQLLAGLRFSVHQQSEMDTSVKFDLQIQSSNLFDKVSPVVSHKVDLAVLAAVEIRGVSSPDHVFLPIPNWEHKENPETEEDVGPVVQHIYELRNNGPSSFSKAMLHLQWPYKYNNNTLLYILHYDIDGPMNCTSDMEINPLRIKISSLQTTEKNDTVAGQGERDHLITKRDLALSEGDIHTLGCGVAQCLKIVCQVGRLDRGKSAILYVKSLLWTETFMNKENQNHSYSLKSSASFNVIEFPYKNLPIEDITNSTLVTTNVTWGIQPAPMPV
T1 sequence (P18564 22-707 limits assumed): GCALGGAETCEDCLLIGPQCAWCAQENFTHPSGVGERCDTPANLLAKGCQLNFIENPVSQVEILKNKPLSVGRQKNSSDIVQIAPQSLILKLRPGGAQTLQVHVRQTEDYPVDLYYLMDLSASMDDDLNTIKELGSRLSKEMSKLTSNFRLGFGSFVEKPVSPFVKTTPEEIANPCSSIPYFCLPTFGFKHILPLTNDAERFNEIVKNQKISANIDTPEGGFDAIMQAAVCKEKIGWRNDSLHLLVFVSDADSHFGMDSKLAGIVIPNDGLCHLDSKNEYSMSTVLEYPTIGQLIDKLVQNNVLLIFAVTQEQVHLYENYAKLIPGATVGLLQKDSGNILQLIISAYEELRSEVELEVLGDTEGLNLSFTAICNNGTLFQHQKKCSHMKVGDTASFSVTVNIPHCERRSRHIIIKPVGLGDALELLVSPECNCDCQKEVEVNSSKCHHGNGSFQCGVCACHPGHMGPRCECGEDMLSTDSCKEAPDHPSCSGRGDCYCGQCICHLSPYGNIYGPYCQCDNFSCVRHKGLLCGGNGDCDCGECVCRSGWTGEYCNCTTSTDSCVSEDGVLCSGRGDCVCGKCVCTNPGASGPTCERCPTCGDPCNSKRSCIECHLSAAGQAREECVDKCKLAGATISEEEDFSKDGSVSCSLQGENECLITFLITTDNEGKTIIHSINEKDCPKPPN
Put plainly: human αVβ6 HTRF binding assay. The following applies: recombinant human αVβ6 integrin, FITC-conjugated fibronectin. An outline of the steps: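 HTRF binding in 20 mM Tris pH 7.4 with 1 mM MgCl2, 1 mM MnCl2, 0.01% Tween 20 and 0.01% BSA. For αVβ6, biotinylated integrin (1.25 nM) and FITC-fibronectin (5 nM) were incubated 1 h at RT, then streptavidin-terbium (0.625 nM) was added overnight in the dark. An SPA-based fibronectin binding format was an alternative.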
In general terms: Time-resolved FRET reads energy transfer from a long-lived donor to a nearby acceptor.
As for `O=C(O)CC(c1cccc(N2CCCC2=O)c1)n1ncc2cc(OCCc3ccc4c(n3)NCCC4)ccc21` (stereo not drawn) [Example 62, 3-(3-(2-Oxopyrrolidin-1-yl)phenyl)-3-(5-(2-(5,6,7,8-tetrahydro-1,8-naphthyridin-2-yl)ethoxy)-1H-indazol-1-yl)propanoic acid, TFA], the IC50 was found to be 37 nM.

As for `CCCCCC(CC(=O)O)n1ncc2cc(OCCc3ccc4c(n3)NCCC4)ccc21` (stereo not drawn) [Example 46, 3-(5-(2-(5,6,7,8-Tetrahydro-1,8-naphthyridin-2-yl)ethoxy)-1H-indazol-1-yl)octanoic acid, TFA], the half-inhibitory concentration (IC50) was determined as 330 nM.

Consider `O=C(O)CC(c1cc(Cl)cc(Cl)c1)n1ncc2cc(OCCc3ccc4c(n3)NCCC4)ccc21` (stereo not drawn) [Example 43, 3-(3,5-Dichlorophenyl)-3-(5-(2-(5,6,7,8-tetrahydro-1,8-naphthyridin-2-yl)ethoxy)-1H-indazol-1-yl)propanoic acid, TFA], for which the IC50 came out at 3.2 nM.

Turning to `Cn1ccc(C(CC(=O)O)n2ncc3cc(OCCc4ccc5c(n4)NCCC5)ccc32)cc1=O` (stereo not drawn) [Example 71, 3-(1-Methyl-2-oxo-1,2-dihydropyridin-4-yl)-3-(5-(2-(5,6,7,8-tetrahydro-1,8-naphthyridin-2-yl)ethoxy)-1H-indazol-1-yl)propanoic acid, TFA], the half-maximal inhibitory concentration (IC50) amounted to 64 nM.

As to `CCN1CCn2c(C(CC(=O)O)n3ncc4cc(OCCc5ccc6c(n5)NCCC6)ccc43)cnc2C1` (stereo not drawn) [Example 122, 3-(7-Ethyl-5,6,7,8-tetrahydroimidazo[1,2-a]pyrazin-3-yl)-3-(5-(2-(5,6,7,8-tetrahydro-1,8-naphthyridin-2-yl)ethoxy)-1H-indazol-1-yl)propanoic acid], the IC50 turned out to be 14 nM.

Regarding `COc1ccc([C@H](CC(=O)O)n2cc3cc(OCCc4ccc5c(n4)NCCC5)ccc3n2)cn1` [Example 6, (S)-3-(6-Methoxypyridin-3-yl)-3-(5-(2-(5,6,7,8-tetrahydro-1,8-naphthyridin-2-yl)ethoxy)-2H-indazol-2-yl)propanoic acid], the IC50 stood at 600 nM.

With `CN1CCN(c2cncc(C(CC(=O)O)n3ncc4cc(OCCc5ccc6c(n5)NCCC6)ccc43)c2)CC1` (stereo not drawn) [Example 156, 3-(5-(4-methylpiperazin-1-yl)pyridin-3-yl)-3-(5-(2-(5,6,7,8-tetrahydro-1,8-naphthyridin-2-yl)ethoxy)-1H-indazol-1-yl)propanoic acid], the IC50 stood at 8.8 nM.

On to `O=C(O)CC(c1ccc2c(c1)oc1ccccc12)n1ncc2c(OCCc3ccc4c(n3)NCCC4)cccc21` (stereo not drawn) [Example 30, 3-(Dibenzo[b,d]furan-3-yl)-3-(4-(2-(5,6,7,8-tetrahydro-1,8-naphthyridin-2-yl)ethoxy)-1H-indazol-1-yl)propanoic acid], for which the IC50 came to 1200 nM.

For `COc1ccc([C@H](CC(=O)O)n2cc3cc(CCc4ccc5c(n4)NCCC5)ccc3n2)cn1` [Example 64, (S)-3-(6-Methoxypyridin-3-yl)-3-(5-(2-(5,6,7,8-tetrahydro-1,8-naphthyridin-2-yl)ethyl)-2H-indazol-2-yl)propanoic acid], the half-maximal inhibitory concentration (IC50) was determined as 19 nM.

For `O=C(NC(Cn1ncc2cc(OCCc3ccc4c(n3)NCCC4)ccc21)C(=O)O)OCc1ccccc1` (stereo not drawn) [Example 14, 2-(((Benzyloxy)carbonyl)amino)-3-(5-(2-(5,6,7,8-tetrahydro-1,8-naphthyridin-2-yl)ethoxy)-1H-indazol-1-yl)propanoic acid], the half-maximal inhibitory concentration (IC50) was 300 nM.

For the compound `Cc1ncc([C@H](CC(=O)O)n2ncc3cc(OCCc4ccc5c(n4)NCCC5)ccc32)cn1` [Example 159, (S)-3-(2-methylpyrimidin-5-yl)-3-(5-(2-(5,6,7,8-tetrahydro-1,8-naphthyridin-2-yl)ethoxy)-1H-indazol-1-yl)propanoic acid], the concentration for half-maximal inhibition (IC50) was determined as 47 nM.

As to `O=C(O)CC(c1ccc2c(n1)NCCO2)n1ncc2cc(OCCc3ccc4c(n3)NCCC4)ccc21` (stereo not drawn) [Example 91, 3-(3,4-Dihydro-2H-pyrido[3,2-b][1,4]oxazin-6-yl)-3-(5-(2-(5,6,7,8-tetrahydro-1,8-naphthyridin-2-yl)ethoxy)-1H-indazol-1-yl)propanoic acid, 2 TFA], the IC50 is 31 nM.

As for `O=C(O)CC(c1cc(Cl)cc(Cl)c1)n1ncc2c(OCCc3ccc4c(n3)NCCC4)cccc21` (stereo not drawn) [Example 32, 3-(3,5-Dichlorophenyl)-3-(4-(2-(5,6,7,8-tetrahydro-1,8-naphthyridin-2-yl)ethoxy)-1H-indazol-1-yl)propanoic acid], the concentration for half-maximal inhibition (IC50) turned out to be 1300 nM.

In the case of `O=C(O)CC(c1ccccn1)n1ncc2cc(OCCc3ccc4c(n3)NCCC4)ccc21` (stereo not drawn) [Example 61, 3-(Pyridin-2-yl)-3-(5-(2-(5,6,7,8-tetrahydro-1,8-naphthyridin-2-yl)ethoxy)-1H-indazol-1-yl)propanoic acid, TFA], the IC50 is 80 nM.

Consider `CN(C)C(=O)c1cccc(C(CC(=O)O)n2ncc3cc(OCCc4ccc5c(n4)NCCC5)ccc32)c1` (stereo not drawn) [Example 35, 3-(3-(Dimethylcarbamoyl)phenyl)-3-(5-(2-(5,6,7,8-tetrahydro-1,8-naphthyridin-2-yl)ethoxy)-1H-indazol-1-yl)propanoic acid], for which the IC50 was determined as 17 nM.

In the case of `O=C(O)CC(c1cnc(N2CCOCC2)nc1)n1ncc2cc(OCCc3ccc4c(n3)NCCC4)ccc21` (stereo not drawn) [Example 111, 3-(2-Morpholinopyrimidin-5-yl)-3-(5-(2-(5,6,7,8-tetrahydro-1,8-naphthyridin-2-yl)ethoxy)-1H-indazol-1-yl)propanoic acid, TFA], the half-maximal inhibitory concentration (IC50) was determined as 24 nM.

Regarding `O=C(O)C[C@@H](c1cncc(N2CCCC2=O)c1)n1ncc2cc(OCCc3ccc4c(n3)NCCC4)ccc21` [Example 151, (5)-3-(5-(2-oxopyrrolidin-1-yl)pyridin-3-yl)-3-(5-(2-(5,6,7,8-tetrahydro-1,8-naphthyridin-2-yl)ethoxy)-1H-indazol-1-yl)propanoic acid], the IC50 stood at 1 nM.

Take `Cc1ncc([C@@H](CC(=O)O)n2ncc3cc(OCCc4ccc5c(n4)N[C@@H](C)CC5)ccc32)cn1` (single isomer, unassigned) [Example 177]: the IC50 came out at 5000 nM.

Regarding `NCc1cncc(C(CC(=O)O)n2ncc3cc(OCCc4ccc5c(n4)NCCC5)ccc32)c1` (stereo not drawn) [Example 131, 3-(5-(Aminomethyl)pyridin-3-yl)-3-(5-(2-(5,6,7,8-tetrahydro-1,8-naphthyridin-2-yl)ethoxy)-1H-indazol-1-yl)propanoic acid], the IC50 worked out at 30 nM.

With `O=C(O)CC(c1cc(Cl)cc(Cl)c1)n1ncc2c(CCCc3ccc4c(n3)NCCC4)cccc21` (stereo not drawn) [Example 18, 3-(3,5-Dichlorophenyl)-3-(4-(3-(5,6,7,8-tetrahydro-1,8-naphthyridin-2-yl)propyl)-1H-indazol-1-yl)propanoic acid], the IC50 was determined as 2700 nM.

Turning to `COc1ccc([C@H](CC(=O)O)n2cc3ccc(CCc4cc5c(nc4C)NCCC5)cc3n2)cn1` [Example 10, (S)-3-(6-Methoxypyridin-3-yl)-3-(6-(2-(2-methyl-5,6,7,8-tetrahydro-1,8-naphthyridin-3-yl)ethyl)-2H-indazol-2-yl)propanoic acid], the IC50 is 160 nM.

Consider `O=C(O)CC(c1cnc2c(cnn2C2CCCCO2)c1)n1ncc2cc(OCCc3ccc4c(n3)NCCC4)ccc21` (stereo not drawn) [Example 103, 3-(5-(2-(5,6,7,8-tetrahydro-1,8-naphthyridin-2-yl)ethoxy)-1H-indazol-1-yl)-3-(1-(tetrahydro-2H-pyran-2-yl)pyrazolo[3,4-b]pyridin-5-yl)propanoic acid, TFA], for which the 50% inhibitory concentration (IC50) is 5.4 nM.

For the compound `O=C(O)CC(c1cncc(N2CCOCC2)n1)n1ncc2cc(OCCc3ccc4c(n3)NCCC4)ccc21` (stereo not drawn) [Example 142, 3-(6-morpholinopyrazin-2-yl)-3-(5-(2-(5,6,7,8-tetrahydro-1,8-naphthyridin-2-yl)ethoxy)-1H-indazol-1-yl)propanoic acid], the 50% inhibitory concentration (IC50) was 36 nM.

With `O=C(O)CC(c1ccc2nncn2c1)n1ncc2cc(OCCc3ccc4c(n3)NCCC4)ccc21` (stereo not drawn) [Example 115, 3-([1,2,4]Triazolo[4,3-a]pyridin-6-yl)-3-(5-(2-(5,6,7,8-tetrahydro-1,8-naphthyridin-2-yl)ethoxy)-1H-indazol-1-yl)propanoic acid], the IC50 came out at 60 nM.

Take `O=C(O)CC(c1cnc2ccccc2n1)n1ncc2c(CCCc3ccc4c(n3)NCCC4)cccc21` (stereo not drawn) [Example 19, 3-(Quinoxalin-2-yl)-3-(4-(3-(5,6,7,8-tetrahydro-1,8-naphthyridin-2-yl)propyl)-1H-indazol-1-yl)propanoic acid]: the IC50 was 220 nM.

For `O=C(O)CC(c1cnn(-c2ccncc2)c1)n1ncc2cc(OCCc3ccc4c(n3)NCCC4)ccc21` (stereo not drawn) [Example 135, 3-(1-(Pyridin-4-yl)-1H-pyrazol-4-yl)-3-(5-(2-(5,6,7,8-tetrahydro-1,8-naphthyridin-2-yl)ethoxy)-1H-indazol-1-yl)propanoic acid], the 50% inhibitory concentration (IC50) stood at 3.8 nM.

For `O=C(O)CCCNc1cncc(C(CC(=O)O)n2ncc3cc(OCCc4ccc5c(n4)NCCC5)ccc32)n1` (stereo not drawn) [Example 173, 4-((6-(2-Carboxy-1-(5-(2-(5,6,7,8-tetrahydro-1,8-naphthyridin-2-yl)ethoxy)-1H-indazol-1-yl)ethyl)pyrazin-2-yl)amino)butanoic acid], the IC50 came out at 370 nM.

Take `CN(C)C(=O)c1cccc([C@H](CC(=O)O)n2ncc3cc(OCCc4ccc5c(n4)NCCC5)ccc32)c1` [Example 38, (S)-3-(3-(Dimethylcarbamoyl)phenyl)-3-(5-(2-(5,6,7,8-tetrahydro-1,8-naphthyridin-2-yl)ethoxy)-1H-indazol-1-yl)propanoic acid]: the IC50 was 4.2 nM.

As to `CCCn1cc(C(CC(=O)O)n2ncc3cc(OCCc4ccc5c(n4)NCCC5)ccc32)cn1` (stereo not drawn) [Example 63, 3-(1-Propylpyrazol-4-yl)-3-(5-(2-(5,6,7,8-tetrahydro-1,8-naphthyridin-2-yl)ethoxy)-1H-indazol-1-yl)propanoic acid, TFA], the IC50 was found to be 55 nM.

In the case of `O=C(O)C[C@@H](c1cnc2nccnc2c1)n1ncc2cc(OCCc3ccc4c(n3)NCCC4)ccc21` [Example 129, (S)-3-(Pyrido[2,3-b]pyrazin-7-yl)-3-(5-(2-(5,6,7,8-tetrahydro-1,8-naphthyridin-2-yl)ethoxy)-1H-indazol-1-yl)propanoic acid], the half-maximal inhibitory concentration (IC50) worked out at 480 nM.

Usually IC50 stands for the concentration that gives 50% inhibition.
